Assay results: patent US20150328198A1, “METHODS OF TREATING METHICILLIN-RESISTANT STAPHYLOCOCCUS AUREUS (MRSA) USING PPAR-GAMMA AGONISTS” (priority 2014, published 2015)

Tested on: MRSA
Assay: murine MRSA skin and soft tissue infection (SSTI) model
Format: in vivo, mice
Description: Peroxisome Proliferator Activator Receptor-γ (PPAR-γ) is a nuclear receptor that inhibits inflammation and redirects macrophages towards an M2 phenotype by driving Arg-1, Scd-1, SSAT and fatty acid synthesis gene expression. PPAR-γ is therefore involved in the development of adipocytes as well as M2-MΦs.

Structure (SMILES)	beneficial effects of treatment in PPAR-γ-/- mice (mice lacking myeloid PPAR-γ)	reduction of average time to healing (mouse, in vivo) [days]	number of viable bacteria in wounds/abscesses (day 12)	resolution of MRSA SSTIs (mouse, in vivo)
CN(CCOc1ccc(CC2SC(=O)NC2=O)cc1)c1ccccn1 (centres unmarked) [Rosiglitazone]	no effect	~5		
O=C(Nc1ccccc1)c1cc([N+](=O)[O-])ccc1Cl [GW9662]			greatly increased	non-resolving
CCc1ccc(CCOc2ccc(CC3SC(=O)NC3=O)cc2)nc1 (centres unmarked) [Pioglitazone]		~5		
